Laboratory results from US12678451B2, “Cannabinoid and omega fatty acid compositions and methods of using” (GreenWay Herbal Products, LLC, priority 2019, dated 2026).

Assays:
[1] = system: cytokine levels in differentiated THP-1 cells treated with LPS; assay: THP-1 human cellular LPS cytokine assay, three independent experiments, total averaged suppression; conditions: Homo sapiens, THP-1, 4 h, read-out: % Cytokine Suppression (total averaged)
Procedure: Cells were seeded onto 24-, or 12-well plates and incubated for 48 hours to 72 hours to allow for differentiation. […] Supernatants were collected for quantification of human cytokine levels to assess the cytokine response. Cells remaining after the supernatant collection were tested to ensure they had at least 90% viability as determined by Alamar Blue assays. To conduct the Alamar Blue assays, supernatants were replaced with culture medium containing 1× Alamar Blue reagent and incubated overnight. Cell viability was assessed by measuring relative fluorescent units (RFU) on the SpectraMax M2e microplate reader (Molecular Devices Inc., Sunnyvale, Calif., USA) at Excitation 560 nm and Emission 590 nm. Controls included untreated cells with DMSO at the same concentration as the treated cells, LPS stimulated cells with DMSO at the same concentration as the treated cells and LPS stimulated cell with the various treatments. The levels of 42 of the most common human cytokines (Eve Technologies, Calgary, Canada Table 6) were determined by multi-plex analysis.
For this reason, the level of cytokine suppression was determined for each cytokine by each cannabinoid that was tested and the total averaged suppression for each cannabinoid was determined by dividing the total suppression by the number of the cytokines that were analyzed.

[2] = system: cytokines induced in mice by LPS; assay: Mouse LPS cytokine model, Example 6D, ALA, DHA and EPA omega-3 samples; type: in vivo; conditions: 12.5 mg total omega fatty acids per mouse, DXM 0.01 mg per mouse
Procedure: A series of experiments using a mouse LPS cytokine animal model were performed. In the mouse LPS cytokine animal model, mice were injected with LPS, which induced the immune response shortly after the mice were injected with one of the potential anti-inflammatory compounds under evaluation (the “test compound”). The efficacy of the test compound was evaluated based on its ability to reduce expression levels of inflammatory cytokines that were elevated due to the immune response. The test compounds included a cannabinoid, an omega fatty acid, and a cannabinoid-omega fatty acid composition.
The mice were intraperitoneally injected with 0.1 mL of the test compound. One hour later, the mice were intraperitoneally injected with 0.1 mL of LPS in phosphate buffered saline (PBS). Four hours later, a heart puncture was performed and the blood was allowed to clot to generate serum. 0.1 mL of the serum was diluted 1:2 with PBS and stored at −80° C. The serum was then sent to a laboratory where a mouse cytokine array/chemokine array 31-plex (MD31) analysis was performed that analyzed the expression levels of the 32 cytokines/chemokines listed in Table 9, above.
For each considered test compound, the ability of the test compound to suppress each inflammatory cytokine was calculated by determining the percent suppression.
36 female C57BL/6 mice that weighed approximately 20 g each were obtained and allowed to acclimate for one week after arrival with unlimited access to food and water. On the day of the study, the mice were weighed and split into eight groups of four mice each so that the average weight of each group was as close as possible to each other.
All of the omega fatty acid samples that were tested were diluted so the dose was 12.5 mg of total omega fatty acids per mouse. […] The omega fatty acids samples tested included: (1) pollock oil, 456 mg/mL omega unsaturated fatty acids. The pollock oil contained a mixture of anti-inflammatory omega-3, omega-7 and omega-9 unsaturated fatty acids. […] (2) Flaxseed oil, 656 mg/mL anti-inflammatory omega unsaturated fatty acids. The flaxseed oil contained a mixture of anti-inflammatory omega-3 and omega-9 unsaturated fatty acids. The omega-3 and omega-9 unsaturated fatty acids constituted 77.6% and […], respectively, of the anti-inflammatory omega fatty acids contained in the flaxseed oil. A 12.5 mg dose contained 9.7 mg of ALA in the triglyceride form. (3) Mono 2:1 DHA:EPA, 744 mg/mL omega-3 unsaturated fatty acids that were primarily DHA or EPA. A 12.5 mg dose contained 7.81 mg of DHA and 3.91 mg of EPA. The omega-3 unsaturated fatty acids were in the free mono form. […] A 12.5 mg dose contained 3.85 mg of DHA and 7.69 mg of EPA. The omega-3 unsaturated fatty acids were in the free mono form. (5) Tri 2:1 DHA:EPA, 678.9 mg/mL omega-3 unsaturated fatty acids that were primarily DHA or EPA. A 12.5 mg dose contained 7.88 mg of DHA and 3.94 mg of EPA. The omega-3 unsaturated fatty acids were in the triglyceride form. (6) Tri 1:2 DHA:EPA, 678.9 mg/mL omega-3 unsaturated fatty acids that were primarily DHA or EPA. A 12.5 mg dose contained 3.60 mg of DHA and 7.19 mg of EPA. The omega-3 unsaturated fatty acids were in the triglyceride form.

C[C@@H]1C[C@H]2[C@@H]3CCC4=CC(=O)C=C[C@]4(C)[C@@]3(F)[C@@H](O)C[C@]2(C)[C@@]1(O)C(=O)CO [Dexamethasone, dexamethasone]
inhibition at 2 µM [1]: 51% | AVERAGE SUPPRESSION [2]: 43.34% | Eotaxin suppression [2]: 24.14% | IL-6 suppression [2]: 76.02% | IL-10 suppression [2]: 47.30% | IP-10 suppression [2]: 41.65% | KC suppression [2]: 56.41% | MCP-1 suppression [2]: 54.99% | MIG suppression [2]: 25.46% | MIP-1α suppression [2]: 55.47% | MIP-1β suppression [2]: 48.33% | RANTES suppression [2]: 39.58% | AVERAGE SUPPRESSION ([2]; listed as DXM): 43.34% | AVERAGE SUPPRESSION ([2]; listed as dexamethasone): 43.34%
